Key:
Format in all cases: physicochemical
[1] = Impact of ticagrelor particle size on dissolution
Description: In a further example the impact of particle size on solubility was tested. Two different particle size diameters for the ticagrelor active ingredient were screened, 5.5 and 15 micrometers. The pH and osmolality were not affected.

[2] = 3 months stability study at pH 7, 7.5 and 8 in amber glass vials; design: Assay: unit not given here; conditions: for Acetal impurity / Amine impurity / Assay / Description / Regiomer / Sum impurities >0.05 / Total (impurity) / Triol impurity / pH: amber vials, HPβCD 40% w/w
Description: To optimize the HPβCD concentration and the pH of the solution for intravenous use, a 12 week/3 months stability study was conducted. […] Its stability was tested at regular intervals.
A comparison of stability profile at 3 different pH-7, 7.5 and 8—was carried out as below, the manufacturing process for all 3 formulations was kept constant with buffer strength at 19 mM.

[3] = Clear aqueous solutions with ticagrelor-cyclodextrin inclusion complex (Table 17); conditions: using 20-40% w/w HPβCD
[4] = particle distribution D90 5.5 μm, micronized
[5] = particle distribution D90 15 μm, unmicronized
[6] = 19 mM pH 7 phosphate buffer, 1 M
[7] = 19 mM pH 7 phosphate buffer, 2 M
[8] = 19 mM pH 7 phosphate buffer, 3 M
[9] = 19 mM pH 7 phosphate buffer, T0
[10] = 19 mM pH 7.5 phosphate buffer, 1 M
[11] = 19 mM pH 7.5 phosphate buffer, 2 M
[12] = 19 mM pH 7.5 phosphate buffer, 3 M
[13] = 19 mM pH 7.5 phosphate buffer, T0
[14] = 19 mM pH 8 phosphate buffer, 1 M
[15] = 19 mM pH 8 phosphate buffer, 2 M
[16] = 19 mM pH 8 phosphate buffer, 3 M
[17] = 19 mM pH 8 phosphate buffer, T0

Q: For `CCCSc1nc(N[C@@H]2C[C@H]2c2ccc(F)c(F)c2)c2nnn([C@@H]3C[C@H](OCCO)[C@@H](O)[C@H]3O)c2n1` [ticagrelor, (1S,2S,3R,5S)-3-{7-[(1R,2S)-2-(3,4-difluorophenyl)cyclopropylamino]5-(propylthio)-3H-(1,2,3)triazolo (4,5-D)pyrimidin-3-yl}-5-(2 hydroxyethoxy) cyclopentane-1,2-diol], which Dissolution time [1, 4] is on record?
A: 33 min

Q: And the Osmolality [1, 4]?
A: 751 mOsm/kg

Q: What about the pH [1, 4] of the same molecule?
A: 7.68

Q: And the Dissolution time [1, 5]?
A: 125 min

Q: And the Osmolality [1, 5]?
A: 753 mOsm/kg

Q: What about the pH [1, 5] of the same molecule?
A: 7.70

Q: And the Acetal impurity [2, 6]?
A: 0.05%

Q: What about the Amine impurity [2, 6] of the same molecule?
A: 0.04%

Q: What about the Assay [2, 6] of the same molecule?
A: 99.73

Q: What about the Description [2, 6] of the same molecule?
A: clear

Q: What about the Regiomer [2, 6] of the same molecule?
A: 0.03%

Q: And the “Sum impurities >0.05” value [2, 6]?
A: 0.05%

Q: What about the “Total (impurity)” value [2, 6] of the same molecule?
A: 0.27%

Q: And the Triol impurity [2, 6]?
A: 0.02%

Q: And the pH [2, 6]?
A: 7.34

Q: What about the Acetal impurity [2, 7] of the same molecule?
A: 0.05%

Q: What about the Amine impurity [2, 7] of the same molecule?
A: 0.04%

Q: And the Assay [2, 7]?
A: 99.81

Q: What about the Description [2, 7] of the same molecule?
A: clear

Q: And the Regiomer [2, 7]?
A: 0.06%

Q: What about the “Sum impurities >0.05” value [2, 7] of the same molecule?
A: 0.11%

Q: And the “Total (impurity)” value [2, 7]?
A: 0.34%

Q: And the Triol impurity [2, 7]?
A: 0.04%

Q: And the pH [2, 7]?
A: 7.34

Q: And the Acetal impurity [2, 8]?
A: 0.05%

Q: And the Amine impurity [2, 8]?
A: 0.06%

Q: And the Assay [2, 8]?
A: 98.51

Q: What about the Description [2, 8] of the same molecule?
A: clear

Q: And the Regiomer [2, 8]?
A: 0.11%

Q: And the “Sum impurities >0.05” value [2, 8]?
A: 0.22%

Q: And the “Total (impurity)” value [2, 8]?
A: 0.40%

Q: What about the Triol impurity [2, 8] of the same molecule?
A: 0.04%

Q: What about the pH [2, 8] of the same molecule?
A: 7.30

Q: And the Acetal impurity [2, 9]?
A: 0.05%

Q: And the Amine impurity [2, 9]?
A: 0.04%

Q: And the Assay [2, 9]?
A: 98.95

Q: And the Description [2, 9]?
A: clear

Q: And the Regiomer [2, 9]?
A: 0.00%

Q: And the “Sum impurities >0.05” value [2, 9]?
A: 0.22%

Q: What about the “Total (impurity)” value [2, 9] of the same molecule?
A: 0.41%

Q: And the Triol impurity [2, 9]?
A: 0.05%

Q: What about the pH [2, 9] of the same molecule?
A: 7.33

Q: What about the Acetal impurity [2, 10] of the same molecule?
A: 0.05%

Q: And the Amine impurity [2, 10]?
A: 0.05%

Q: What about the Assay [2, 10] of the same molecule?
A: 104.47

Q: And the Description [2, 10]?
A: clear

Q: And the Regiomer [2, 10]?
A: 0.01%

Q: And the “Sum impurities >0.05” value [2, 10]?
A: 0.14%

Q: And the “Total (impurity)” value [2, 10]?
A: 0.32%

Q: And the Triol impurity [2, 10]?
A: 0.05%

Q: And the pH [2, 10]?
A: 7.50

Q: What about the Acetal impurity [2, 11] of the same molecule?
A: 0.05%

Q: And the Amine impurity [2, 11]?
A: 0.05%

Q: What about the Assay [2, 11] of the same molecule?
A: 102.59

Q: What about the Description [2, 11] of the same molecule?
A: clear

Q: What about the Regiomer [2, 11] of the same molecule?
A: 0.04%

Q: And the “Sum impurities >0.05” value [2, 11]?
A: 0.15%

Q: And the “Total (impurity)” value [2, 11]?
A: 0.29%

Q: What about the Triol impurity [2, 11] of the same molecule?
A: 0.05%

Q: And the pH [2, 11]?
A: 7.48

Q: What about the Acetal impurity [2, 12] of the same molecule?
A: 0.05%

Q: And the Amine impurity [2, 12]?
A: 0.05%

Q: And the Assay [2, 12]?
A: 102.31

Q: And the Description [2, 12]?
A: clear

Q: And the Regiomer [2, 12]?
A: 0.08%

Q: And the “Sum impurities >0.05” value [2, 12]?
A: 0.23%

Q: What about the “Total (impurity)” value [2, 12] of the same molecule?
A: 0.41%

Q: What about the Triol impurity [2, 12] of the same molecule?
A: 0.04%

Q: What about the pH [2, 12] of the same molecule?
A: 7.55

Q: And the Acetal impurity [2, 13]?
A: 0.05%

Q: What about the Amine impurity [2, 13] of the same molecule?
A: 0.04%

Q: And the Assay [2, 13]?
A: 104.27

Q: What about the Description [2, 13] of the same molecule?
A: clear

Q: And the Regiomer [2, 13]?
A: 0.00%

Q: What about the “Sum impurities >0.05” value [2, 13] of the same molecule?
A: 0.11%

Q: What about the “Total (impurity)” value [2, 13] of the same molecule?
A: 0.31%

Q: And the Triol impurity [2, 13]?
A: 0.04%

Q: And the pH [2, 13]?
A: 7.40

Q: And the Acetal impurity [2, 14]?
A: 0.05%

Q: And the Amine impurity [2, 14]?
A: 0.05%

Q: What about the Assay [2, 14] of the same molecule?
A: 105.88

Q: And the Description [2, 14]?
A: clear

Q: And the Regiomer [2, 14]?
A: 0.01%

Q: And the “Sum impurities >0.05” value [2, 14]?
A: 0.09%

Q: And the “Total (impurity)” value [2, 14]?
A: 0.26%

Q: What about the Triol impurity [2, 14] of the same molecule?
A: 0.03%

Q: And the pH [2, 14]?
A: 8.10

Q: What about the Acetal impurity [2, 15] of the same molecule?
A: 0.05%

Q: And the Amine impurity [2, 15]?
A: 0.05%

Q: And the Assay [2, 15]?
A: 105.46

Q: What about the Description [2, 15] of the same molecule?
A: clear

Q: And the Regiomer [2, 15]?
A: 0.03%

Q: And the “Sum impurities >0.05” value [2, 15]?
A: 0.15%

Q: And the “Total (impurity)” value [2, 15]?
A: 0.32%

Q: What about the Triol impurity [2, 15] of the same molecule?
A: 0.05%

Q: And the pH [2, 15]?
A: 8.04

Q: What about the Acetal impurity [2, 16] of the same molecule?
A: 0.05%

Q: And the Amine impurity [2, 16]?
A: 0.07%

Q: And the Assay [2, 16]?
A: 104.46

Q: And the Description [2, 16]?
A: clear

Q: And the Regiomer [2, 16]?
A: 0.06%

Q: What about the “Sum impurities >0.05” value [2, 16] of the same molecule?
A: 0.23%

Q: And the “Total (impurity)” value [2, 16]?
A: 0.37%

Q: What about the Triol impurity [2, 16] of the same molecule?
A: 0.05%

Q: And the pH [2, 16]?
A: 8.03

Q: And the Acetal impurity [2, 17]?
A: 0.05%

Q: And the Amine impurity [2, 17]?
A: 0.04%

Q: And the Assay [2, 17]?
A: 103.25

Q: And the Description [2, 17]?
A: clear

Q: And the Regiomer [2, 17]?
A: 0.00%

Q: And the “Sum impurities >0.05” value [2, 17]?
A: 0.25%

Q: What about the “Total (impurity)” value [2, 17] of the same molecule?
A: 0.43%

Q: What about the Triol impurity [2, 17] of the same molecule?
A: 0.06%

Q: And the pH [2, 17]?
A: 8.07

Q: What about the “stability of ticagrelor solution in HPβCD (conclusion)” value ([2]; pH range of 7 to 8) of the same molecule?
A: stable

Q: And the “ticagrelor solution concentration achieved” value [3]?
A: 5 −13 mg/ml
